For the assay, the target named is T1, 20S proteasome (chymotrypsin-like activity) (Oryctolagus cuniculus, UniProt G1T4Q9).
T1 sequence (G1T4Q9 1-263): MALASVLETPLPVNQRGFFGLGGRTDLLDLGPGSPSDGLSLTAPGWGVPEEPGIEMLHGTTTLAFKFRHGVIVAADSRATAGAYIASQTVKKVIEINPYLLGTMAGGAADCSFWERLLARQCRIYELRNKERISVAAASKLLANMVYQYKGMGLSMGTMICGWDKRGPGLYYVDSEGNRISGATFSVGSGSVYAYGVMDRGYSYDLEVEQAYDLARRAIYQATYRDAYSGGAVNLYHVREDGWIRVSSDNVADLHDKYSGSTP
The assay can be described thus: fluorogenic Suc-LLVY-AMC hydrolysis by purified […] proteasome, […] h at […]°C. The format is biochemical.

As to `CCOC(=O)CN(C)C1=[S+][Au-]([Br])([Br])[S]1` [AUL12, [AuBr2(ESDT)]], the IC50 (in general, the concentration that inhibits the measured activity by half) is 1.13 µM.

The values above are taken from publication PMC3767936 (Journal of cellular biochemistry, 2010).
